“Also recorded” adds a separate entry of the source. Like-named read-outs stand apart in the source and are kept apart here.
Legend:
Aβ1-42 [1] = target: T1, Aβ1-42 (Homo sapiens, UniProt P05067); experiment: Circular dichroism spectroscopy of Aβ1-42 (secondary structure); details: for structural changes (secondary structure): Aβ1-42 250 μM + 100 μM compound, time 0 and 4 h; for amount of β-sheet structures: Aβ1-42 250 μM + melatonin 100 μM
T1 construct: aggregates to fibrils
Experimental: (§1) The corresponding percentages of the different secondary structure motifs are shown for Aβ1-40 at time 0 in (FIG. 1C) and 24 hours (FIG. 1D) and for Aβ1-42 at time 0 (FIG. 1G) and 4 hours (FIG. 1H). An average of 40 scans/independent experimental condition was obtained. An independent experiment yielded qualitatively similar data.
(§2) Peptides Aβ1-40 and Aβ1-42 were synthesized in the W. M. Keck Foundation (Yale University, Conn.), and their purity was evaluated by amino acid sequence and laser […] mass spectrometry as described (Soto et al., 1996).
(§3) Spectra in the far ultraviolet light (190-250 nm) were recorded at various time intervals with a Jasco-720 spectropolarimeter as described (Soto et al., 1996) using a cell path of 0.01 cm. […] 40 scans/experimental condition were obtained at 0.2 nm intervals over the wavelength range 190-250 nm. The data were analyzed by the Lincomb algorithm (Perczel et al., 1992) to obtain the percentages of the different secondary structure motifs.

Aβ1-40 [2] = target: T2, Aβ1-40 (Homo sapiens, UniProt P05067); experiment: Electron microscopy of Aβ1-40 amyloid fibril formation; type: biochemical
T2 construct: aggregates to fibrils
Source text: Bar is 200 nm. […] EM grids were extensively and carefully examined, and a negative result was only documented when fibrils were totally absent from the grids.

Aβ1-40 [3] = target: T2, Aβ1-40; experiment: Circular dichroism spectroscopy of Aβ1-40 (secondary structure); details: for structural changes (secondary structure) / change of random conformation / change of β-sheet content: Aβ1-40 250 μM + 100 μM compound; for structural changes (secondary structure): 24 h; for change of random conformation / change of β-sheet content: time 0
Experimental: as §1, §2, §3

[4] = system: cultured neuroblastoma cells; details: cytotoxic fragment of amyloid β-protein; Pappolla et al., 1997; cited from earlier work
Aβ1-42 [5] = target: T1, Aβ1-42; experiment: Electron microscopy of Aβ1-42 amyloid fibril formation; type: biochemical
Experimental: The formation of amyloid fibrils was monitored at 0, 2, and 6 h.

microtubular components = details: Benitez-King et al., 1993; cited from earlier work
[6] = system: circadian disorders due to jet lag; details: oral, 0.25-10 mg; Arendt et al., 1987; cited from earlier work
[7] = system: intrinsic cellular antioxidant defenses; details: Huerto-Delgadillo et al., 1994; cited from earlier work
Aβ1-40 [8] = target: T2, Aβ1-40; experiment: 1H NMR titration of Aβ1-40 with melatonin (binding)
Experimental: The solution conditions for the NMR and CD studies were similar, except that deuterated water (D2 O) in phosphate buffer was used in the NMR study. All ^1 H NMR spectra were obtained at 600 MHz using a Varian UnityPlus-600 spectrometer, and the data were processed using the FELIX program (version 95.0, Biosym, Inc.). The NMR solutions were prepared in D2 O (0.6 ml) with sodium phosphate buffer (5 mM, pH 7.5), perdeuterated Na2 EDTA (0.5 mM), NaN3 (0.05 mM), and 3-(trimethylsilyl) propionate-2,2,3,3-d4 (0.05 mM), the last of which serves as a internal chemical shift reference at 0 ppm. The NMR measurements were performed at 10° C. and the residual proton absorption of D2 O was suppressed by low power irradiation during the recycle delay. For all spectra, 128 scans were required with a total recycle delay of 4.2 s, which included an acquisition time and recycle delay of 2.2 and 2.0 s, respectively. The digital resolution of the acquired data was 0.24 Hz/pt, which was reduced to 0.12 Hz/pt by zero-filling the data once before processing. To further improve the resolution, before Fourier transformation spectra were multiplied by a Lorentzian-to-Gaussian weighting factor. This experiment was duplicated on two different days.

calmodulin = details: Benitez-King et al., 1993; cited from earlier work
[9] = Tan et al., 1993, cited from earlier work
[10] = cited from earlier work
[11] = Aβ1-40, incubated for up to 48 h

T2 sequence (P05067 672-711): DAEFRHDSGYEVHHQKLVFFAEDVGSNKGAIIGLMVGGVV
T1 sequence (P05067 672-713): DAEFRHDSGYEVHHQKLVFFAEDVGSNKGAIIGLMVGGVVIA

**Q.** With `CC(=O)NCCc1c[nH]c2ccc(O)cc12` [NAT, 5-hydroxy-N-acetyl-tryptamine] as the compound, how does the “structural changes (secondary structure)” value (Aβ1-42 [1]) read?
**A.** The value was “not elicited”.

**Q.** And the Aβ1-40 fibril formation (Aβ1-40 [2]; [11])?
**A.** The Aβ1-40 fibril formation was “Well formed amyloid fibrils are easily recognized; also recorded: fibrils were abundant and easily identifiable”.

**Q.** What about the “structural changes (secondary structure)” value (Aβ1-40 [3]) of the same compound?
**A.** The value was “no structural changes”.

**Q.** What about the “change of random conformation” value (Aβ1-40 [3]) of the same compound?
**A.** Its value is “This effect was not observed”.

**Q.** And the “change of β-sheet content” value (Aβ1-40 [3])?
**A.** Its value is “This effect was not observed”.

**Q.** Which “structural changes (secondary structure)” value (Aβ1-42 [1]) does the source give for `CC(C)(C)[N+]([O-])=Cc1ccccc1` [PBN, N-t-butyl-α-phenylnitrone] here?
**A.** Its value is “not elicited”.

**Q.** And the Aβ1-40 fibril formation (Aβ1-40 [2]; [11])?
**A.** Its Aβ1-40 fibril formation is “Well formed amyloid fibrils are easily recognized; also recorded: fibrils were abundant and easily identifiable”.

**Q.** And the Aβ1-40 fibril formation (Aβ1-40 [2]; PBN 10, 100, and 200 μM, 48 h)?
**A.** Its Aβ1-40 fibril formation is “Fibrils were abundant in all these tubes”.

**Q.** And the “structural changes (secondary structure)” value (Aβ1-40 [3])?
**A.** The value was “only small effects”.

**Q.** And the “change of random conformation” value (Aβ1-40 [3])?
**A.** Its value is “This effect was not observed”.

**Q.** What about the “change of β-sheet content” value (Aβ1-40 [3]) of the same compound?
**A.** The value was “This effect was not observed”.

**Q.** With `COc1ccc2[nH]cc(CCNC(C)=O)c2c1` [melatonin, N-[2-(5-methoxy-1H-indol-3-yl)ethyl] acetamide] as the compound, how does the “prevention of cell death” value [4] read?
**A.** Its value is “effective in preventing death of cultured neuroblastoma cells”.

**Q.** And the “prevention of intracellular Ca^+2 increases” value [4]?
**A.** The value was “effective in preventing”.

**Q.** What about the “prevention of oxidative damage” value [4] of the same compound?
**A.** Its value is “effective in preventing”.

**Q.** And the Aβ1-42 fibril formation (Aβ1-42 [5]; 250 μM Aβ1-42, 2 and 6 h)?
**A.** Its Aβ1-42 fibril formation is “only amorphous material”.

**Q.** What about the Aβ1-42 fibril formation (Aβ1-42 [5]; 6 hrs., melatonin 100 μm (so in the source)) of the same compound?
**A.** The Aβ1-42 fibril formation was “Well formed amyloid fibrils are easily recognized in FIG. 3A, but not in FIG. 3B”.

**Q.** What about the “inhibition of Aβ1-42 fibril formation” value (Aβ1-42 [5]; melatonin 100 nM, 1 μM, 10 μM, 100 μM, and 200 μM) of the same compound?
**A.** Its value is “effective to inhibit fibril formation”.

**Q.** What about the “interaction with microtubular components” value (microtubular components) of the same compound?
**A.** Its value is “interacts”.

**Q.** What about the “treatment of circadian disorders due to jet lag” value [6] of the same compound?
**A.** The value was “used successfully to treat circadian disorders due to jet lag”.

**Q.** And the “activity of intrinsic cellular antioxidant defenses” value [7]?
**A.** Its value is “increase the activity”.

**Q.** What about the “amount of β-sheet structures” value (Aβ1-42 [1]; 4 h of incubation) of the same compound?
**A.** The value was 59%.

**Q.** And the “amount of β-sheet structures” value (Aβ1-42 [1]; time 0)?
**A.** The value was 65%.

**Q.** And the “site of binding on Aβ” value (Aβ1-40 [8]; NMR shifts with varied melatonin concentrations)?
**A.** The value was “not localized to a particular His site on Aβ”.

**Q.** What about the “exchange regime of binding” value (Aβ1-40 [8]; no line broadening or separate peaks for bound and free states) of the same compound?
**A.** The value was “fast exchange limit”.

**Q.** What about the interaction with calmodulin (calmodulin) of the same compound?
**A.** The interaction with calmodulin was “interacts with calmodulin”.

**Q.** And the “crossing of the blood-brain barrier” value [9]?
**A.** Its value is “passes easily across the blood-brain barrier; also recorded: crosses the blood-brain barrier with ease”.

**Q.** And the “crossing of the blood-brain barrier” value ([9]; listed as Melatonin)?
**A.** Its value is “rapidly crosses the blood brain barrier”.

**Q.** And the “concentration of melatonin inhibiting fibril formation in all tubes” value (Aβ1-40 [2]; 250 μM Aβ1-40, 48 h)?
**A.** The value was “above 10 μM”.

**Q.** And the Aβ1-40 fibril formation (Aβ1-40 [2]; 250 μM Aβ1-40 plus 100 μM melatonin)?
**A.** Its Aβ1-40 fibril formation is “only amorphous material”.

**Q.** What about the Aβ1-40 fibril formation (Aβ1-40 [2]; [11]) of the same compound?
**A.** Its Aβ1-40 fibril formation is “Fibrils were not formed; also recorded: no fibrils were detected”.

**Q.** What about the “change of random conformation” value (Aβ1-40 [3]) of the same compound?
**A.** Its value is “immediate increase”.

**Q.** And the “change of β-sheet content” value (Aβ1-40 [3])?
**A.** Its value is “markedly diminished”.

**Q.** What about the β-sheet content (Aβ1-40 [3]; Aβ1-40 250 μM + melatonin 100 μM, 24 h of incubation) of the same compound?
**A.** Its β-sheet content is 24%.

**Q.** What about the lipid solubility [10] of the same compound?
**A.** Its lipid solubility is “lipid soluble”.
